Test results taken from PMC3726044 (Biochemistry, 2013).

T1: ChsE2 (Rv3543c), tagless, expressed from the cistronic construct pigr5 (Mycobacterium tuberculosis H37Rv, UniProt P71858 1-387)
T1 sequence: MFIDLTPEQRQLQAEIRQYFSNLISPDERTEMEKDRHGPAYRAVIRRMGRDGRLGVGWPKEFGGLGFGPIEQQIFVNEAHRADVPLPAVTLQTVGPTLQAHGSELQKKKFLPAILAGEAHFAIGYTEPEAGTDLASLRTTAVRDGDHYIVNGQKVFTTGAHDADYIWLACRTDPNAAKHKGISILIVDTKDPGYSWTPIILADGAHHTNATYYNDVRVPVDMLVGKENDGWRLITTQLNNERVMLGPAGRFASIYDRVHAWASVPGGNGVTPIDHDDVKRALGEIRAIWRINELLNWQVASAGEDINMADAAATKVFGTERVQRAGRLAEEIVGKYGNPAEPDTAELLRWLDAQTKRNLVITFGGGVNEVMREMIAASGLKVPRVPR

B1: ChsE1 (Rv3544c), N-terminal His6 tagged, expressed from the cistronic construct pigr5 (enzyme)
chain: MDFDPTAEQQAVADVVTSVLERDISWEALVCGGVTALPVPERLGGDGVGLFEVGALLTEVGRHGAVTPALATLGLGVVPLLELASAEQQDRFLAGVAKGGVLTAALNEPGAALPDRPATSFVGGRLSGTKVGVGYAEQADWMLVTADNAVVVVSPTADGVRMVRTPTSNGSDEYVMTMDGVAVADCDILADVAAHRVNQLALAVMGAYADGLVAGALRLTADYVANRKQFGKPLSTFQTVAAQLAEVYIASRTIDLVAKSVIWRLAEDLDAGDDLGVLGYWVTSQAPPAMQICHHLHGGMGMDVTYPMHRYYSTIKDLTRLLGGPSHRLELLGARCSLT

Tests used:
[1] = target: ChsE1-ChsE2 (Mycobacterium tuberculosis, UniProt P71857+P71858)
[2] = target: T1, ChsE2 (Rv3543c), tagless, expressed …; assay: pull-down

| Molecule | LC/UV/MS of released flavin (m/z 786), UV-visible spectrum [1] | binding result [2] |
| --- | --- | --- |
| Cc1cc2nc3c(=O)[nH]c(=O)nc-3n(C[C@H](O)[C@H](O)[C@H](O)COP(=O)(O)OP(=O)(O)OC[C@H]3O[C@@H](n4cnc5c(N)ncnc54)[C@H](O)[C@@H]3O)c2cc1C [FAD] | ChsE1-ChsE2 is isolated as a holoprotein with FAD cofactor | – |
| B1 | – | binds |
